≈ marks a conversion by molar mass, not a printed value. Where two headings read alike, the source gives them in different places.
How the values were obtained:
[1] = test system: C. albicans ATCC 10231 (strain A); test: MIC, broth microdilution (CLSI M27-A3), yeast strain A; type: cell-based, Candida albicans; details: Candida albicans, ATCC10231; MIC-0, strain A, 35 °C 48 h
Procedure: (§1) The final concentrations of compounds 3, 4, 7a, 7b, 9, and 16, as well as that of TOB tested in this study ranged from 0.24–62.5 μg/mL. CAS was used as a positive control and the final concentrations tested for CAS ranged from 0.03–31.3 μg/mL. Briefly, overnight yeast cultures were grown in yeast peptone dextrose (YPD) broth and the cell density was adjusted to an OD600 of 0.12 (~1 × 10^6 CFU/mL) by using a spectrophotometer. Yeast cell suspensions were further diluted to achieve 1–5 × 10^3 CFU/mL in RPMI 1640 medium, and 100 μL of these yeast cells was added to 96-well microtiter plates containing RPMI 1640 medium and titrated compounds. Each test was performed in triplicate. The plates were incubated at 35 °C for 48 h.

[2] = test system: C. albicans ATCC 64124 (strain B); test: MIC, broth microdilution (CLSI M27-A3), yeast strain B; type: cell-based; details: Candida albicans, ATCC64124; MIC-0, strain B, 35 °C 48 h
Procedure: as §1

[3] = test system: C. albicans ATCC MYA-2876(S) (strain C); test: MIC, broth microdilution (CLSI M27-A3), yeast strain C; type: cell-based; details: Candida albicans; MIC-0, strain C, 35 °C 48 h
Procedure: as §1

[4] = test system: C. albicans ATCC 90819(R) (strain D); test: MIC, broth microdilution (CLSI M27-A3), yeast strain D; type: cell-based; details: Candida albicans, ATCC90819; MIC-0, strain D, 35 °C 48 h
Procedure: as §1

[5] = test system: C. albicans ATCC MYA-2310(S) (strain E); test: MIC, broth microdilution (CLSI M27-A3), yeast strain E; type: cell-based; details: Candida albicans; MIC-0, strain E, 35 °C 48 h
Procedure: as §1

[6] = test system: C. albicans ATCC MYA-1237(R) (strain F); test: MIC, broth microdilution (CLSI M27-A3), yeast strain F; type: cell-based; details: Candida albicans; MIC-0, strain F, 35 °C 48 h
Procedure: as §1

[7] = test system: C. albicans ATCC MYA-1003(R) (strain G); test: MIC, broth microdilution (CLSI M27-A3), yeast strain G; type: cell-based; details: Candida albicans; MIC-0, strain G, 35 °C 48 h
Procedure: as §1

[8] = test system: Candida glabrata clinical isolate CG1; test: MIC, broth microdilution (CLSI M27-A3), CG1; type: cell-based; details: Nakaseomyces glabratus; MIC-0, CG1, 35 °C 48 h
Procedure: as §1

[9] = test system: Candida glabrata ATCC 2001 (strain H); test: MIC, broth microdilution (CLSI M27-A3), yeast strain H; type: cell-based; details: Nakaseomyces glabratus, ATCC2001; MIC-0, strain H, 35 °C 48 h
Procedure: as §1

[10] = test system: Candida krusei ATCC 6258 (strain I); test: MIC, broth microdilution (CLSI M27-A3), yeast strain I; type: cell-based; details: Pichia kudriavzevii, ATCC6258; MIC-0, strain I, 35 °C 48 h
Procedure: as §1

[11] = test system: Candida parapsilosis ATCC 22019 (strain J); test: MIC, broth microdilution (CLSI M27-A3), yeast strain J; type: cell-based; details: Lodderomyces parapsilosis, ATCC22019; MIC-0, strain J, 35 °C 48 h
Procedure: as §1

[12] = test system: Candida parapsilosis clinical isolate CP1; test: MIC, broth microdilution (CLSI M27-A3), CP1; type: cell-based; details: Lodderomyces parapsilosis; MIC-0, CP1, 35 °C 48 h
Procedure: as §1

[13] = test system: Candida parapsilosis clinical isolate CP2; test: MIC, broth microdilution (CLSI M27-A3), CP2; type: cell-based; details: Lodderomyces parapsilosis; MIC-0, CP2, 35 °C 48 h
Procedure: as §1

[14] = test system: Cryptococcus neoformans clinical isolate CN1; test: MIC, broth microdilution (CLSI M27-A3), CN1; type: cell-based; details: MIC-0, CN1, 35 °C 48 h
Procedure: as §1

[15] = test system: Cryptococcus neoformans clinical isolate CN2; test: MIC, broth microdilution (CLSI M27-A3), CN2; type: cell-based; details: MIC-0, CN2, 35 °C 48 h
Procedure: as §1

[16] = test system: Cryptococcus neoformans clinical isolate CN3; test: MIC, broth microdilution (CLSI M27-A3), CN3; type: cell-based; details: MIC-0, CN3, 35 °C 48 h
Procedure: as §1

[17] = test system: Aspergillus nidulans ATCC 38163 (strain L); test: MIC, filamentous fungi (CLSI M38-A2), strain L; type: cell-based; details: MIC-0, strain L, 35 °C 72 h
Procedure: The spores were harvested from sporulating cultures growing on potato dextrose agar (PDA) by filtration through sterile glass wool and enumerated by using a hemocytometer (Hausser Scientific, Horsham, PA, USA) to obtain the desired inoculum size. Two-fold serial dilutions of compounds 3, 4, 7a, 7b, 9, and 16, as well as CAS and TOB were made in sterile 96-well microtiter plates to obtain the final concentration range of 0.24–62.5 μg/mL for TOB and TOB derivatives as well as 0.03–31.3 μg/mL for CAS in the RPMI 1640 medium. The spore suspensions were added to the wells to afford a final concentration of 5 × 10^5 spores/mL. The plates were incubated at 35 °C for 72 h. […] Each test was performed in triplicate.

[18] = test system: seven C. albicans strains (A-G); test: MIC across the panel of seven C. albicans strains; type: cell-based; details: Candida albicans; across all seven C. albicans strains tested
Procedure: as §1

[19] = Hemolytic activity assay; type: cell-based, murine; details: mouse, murine red blood cells (mRBCs); for hemolysis at 1 h, 0.48 μg/mL / hemolysis at 1 h, 0.975 μg/mL / hemolysis at 1 h, 1.95 μg/mL / hemolysis at 1 h, 3.9 μg/mL / hemolysis at 1 h, 7.8 μg/mL / hemolysis at 1 h, 15.6 μg/mL / hemolysis at 1 h, 31.3 μg/mL / hemolysis at 1 h, 62.5 μg/mL: mRBCs, 37 °C 1 h, ± SDEV; for hemolysis at 1 h: at their MIC values against the Aspergillus strains
Procedure: The hemolytic activity of compounds 3, 4, 7a, 7b, and 9 as well as the parent compound TOB was determined by using previously described methods with minor modifications. Murine whole blood (1 mL) was suspended in 4 mL of PBS and centrifuged at 1000 rpm for 10 min at room temperature to obtain murine red blood cells (mRBCs). The mRBCs were washed four times in PBS and resuspended in the same buffer to a final concentration of 10^7 erythrocytes/mL. Two-fold serial dilutions of compounds 3, 4, 7a, 7b, and 9 were prepared using 100 μL of PBS buffer in Eppendorf tubes followed by the addition of 100 μL of mRBC suspension that made the final concentration of compounds and mRBCs to be 0.48–62.5 μg/mL and 5 × 10^6 erythrocytes/mL, respectively. The tubes were incubated at 37 °C for 1 h. The tubes with PBS buffer (200 μL) and Triton X-100® (1% v/v, 2 μL) served as the negative (blank) and positive controls, respectively. The percentage of hemolysis was calculated using the following equation: % hemolysis = [(absorbance of sample) − (absorbance of blank)] × 100/(absorbance of positive control).

[20] = Aspergillus nidulans, ATCC38163, 72 h, read-out: MIC

Row | Structure (SMILES) | MIC [1] [µg/mL] | MIC [2] [µg/mL] | MIC [3] [µg/mL] | MIC [4] [µg/mL] | MIC [5] [µg/mL] | MIC [6] [µg/mL] | MIC [7] [µg/mL] | MIC [8] [µg/mL] | MIC [9] [µg/mL] | MIC [10] [µg/mL] | MIC [11] [µg/mL] | MIC [12] [µg/mL] | MIC [13] [µg/mL] | MIC [14] [µg/mL] | MIC [15] [µg/mL] | MIC [16] [µg/mL] | MIC [17, 20] [µg/mL] | MIC [17] [µg/mL] | MIC [18] [µg/mL] | hemolysis at 1 h, 0.48 μg/mL [19] [%] | other results
1 | CCCCCCCCCCCCc1cn(C[C@H]2O[C@H](O[C@@H]3[C@@H](O)[C@H](O[C@H]4O[C@H](CN)[C@@H](O)C[C@H]4N)[C@@H](N)C[C@H]3N)[C@H](O)[C@@H](N)[C@@H]2O)nn1 [Compound 7b, O-3-Amino-3,6-dideoxy-6-(4-dodecyl-1H-1,2,3-triazol-1-yl)-α-D-glucopyranosyl-(1→6)-O-[2,6-diamino-2,3,6-trideoxy-α-D-ribo-hexopyranosyl-(1→4)]-2-deoxy-D-streptamine] | 3.9 (≈ 5.68 µM) | 3.9 (≈ 5.68 µM) | 15.6 (≈ 22.7 µM) | 15.6 (≈ 22.7 µM) | 7.8 (≈ 11.4 µM) | 7.8 (≈ 11.4 µM) | 7.8 (≈ 11.4 µM) | 3.9 (≈ 5.68 µM) | 7.8 (≈ 11.4 µM) | 3.9 (≈ 5.68 µM) | 1.95 (≈ 2.84 µM) | 3.9 (≈ 5.68 µM) | 1.95 (≈ 2.84 µM) | 0.48 (≈ 0.699 µM) | 0.48 (≈ 0.699 µM) | 0.975 (≈ 1.42 µM) | 1.95 to 3.9 (≈ 2.84 to 5.68 µM) | 1.95 (≈ 2.84 µM) | 3.9 to 15.6 (≈ 5.68 to 22.7 µM) | 0 | hemolysis at 1 h, 0.975 μg/mL [19]: 0%; hemolysis at 1 h, 1.95 μg/mL [19]: 14.8 ± 3.5%; hemolysis at 1 h, 3.9 μg/mL [19]: 13.4 ± 6.2%; hemolysis at 1 h, 7.8 μg/mL [19]: 24.6 ± 8.1%; hemolysis at 1 h, 15.6 μg/mL [19]: 40.8 ± 5.4%; hemolysis at 1 h, 31.3 μg/mL [19]: 55.5 ± 5.4%; hemolysis at 1 h, 62.5 μg/mL [19]: 74.1 ± 0.8%; hemolysis at 1 h [19]: 12 to 74%
2 | CCCCCCCCCCCC(=O)NC[C@H]1O[C@H](O[C@@H]2[C@@H](O)[C@H](O[C@H]3O[C@H](CN)[C@@H](O)C[C@H]3N)[C@@H](N)C[C@H]2N)[C@H](O)[C@@H](N)[C@@H]1O [Compound 9, O-3-Amino-3,6-dideoxy-6-[(1-oxododecyl)amino]-α-D-glucopyranosyl-(1→6)-O-[2,6-diamino-2,3,6-trideoxy-α-D-ribo-hexopyranosyl-(1→4)]-2-deoxy-D-streptamine] | 31.3 (≈ 48.2 µM) | 15.6 (≈ 24 µM) | 31.3 (≈ 48.2 µM) | 62.5 (≈ 96.3 µM) | 31.3 (≈ 48.2 µM) | 31.3 (≈ 48.2 µM) | 31.3 (≈ 48.2 µM) | 15.6 (≈ 24 µM) | 31.3 (≈ 48.2 µM) | 15.6 (≈ 24 µM) | 7.8 (≈ 12 µM) | 31.3 (≈ 48.2 µM) | 15.6 (≈ 24 µM) | 0.975 (≈ 1.5 µM) | 0.975 (≈ 1.5 µM) | 0.975 (≈ 1.5 µM) | 1.95 to 3.9 (≈ 3.01 to 6.01 µM) | 3.9 (≈ 6.01 µM) | 15.6 to 62.5 (≈ 24 to 96.3 µM) | 0 | hemolysis at 1 h, 0.975 μg/mL [19]: 0%; hemolysis at 1 h, 1.95 μg/mL [19]: 2.5 ± 1.5%; hemolysis at 1 h, 3.9 μg/mL [19]: 4.1 ± 1.5%; hemolysis at 1 h, 7.8 μg/mL [19]: 10.1 ± 4.6%; hemolysis at 1 h, 15.6 μg/mL [19]: 18.3 ± 5.4%; hemolysis at 1 h, 31.3 μg/mL [19]: 26 ± 11.6%; hemolysis at 1 h, 62.5 μg/mL [19]: 31.5 ± 1.5%; hemolysis at 1 h [19]: 4 to 32%

Reference: publication PMC5971061, “Differential Effects of Linkers on the Activity of Amphiphilic Tobramycin Antifungals” (Molecules : A Journal of Synthetic Chemistry and Natural …, 2018)
